These results are taken from ChEMBL document CHEMBL4825697, “Optimization and SAR research at the piperazine and phenyl rings of JNJ4796 as new anti-influenza A virus agents, part 1” (Eur J Med Chem, 2021).

Series [1] can be described thus: Cytotoxicity against dog MDCK cells assessed as reduction in cell viability. The class given is cell-based, Canis lupus familiaris.
Series [2] concerns Influenza A virus. The experiment in a line: Antiviral activity against Influenza A virus (H1N1) infected in dog MDCK cells assessed as inhibition of surface glycoprotein hemagglutinin. It is filed as functional, organism-based.
Series [3] in a line: Selectivity index, ratio of CC50 for cytotoxicity against dog MDCK cells to IC50 for antiviral activity against Influenza A virus […] infected in dog MDCK cells. The class given is toxicity, cell-based. Conditions: read-out: Selectivity Index.
Series [4] concerns the target hERG (KCNH2) (Homo sapiens, UniProt Q12809). The experiment in a line: Inhibition of human ERG at 10 uM.
Series [5] is described as follows: AUC (0 to infinity) in Balb/c mouse at 25 mg/kg, po administered as single dose. It is filed as ADME, organism-based. On the set-up: time infinity, route oral, dose 25 mg/kg. Conditions: in vivo.
Series [6] is described as follows: Tmax in Balb/c mouse at 25 mg/kg, po administered as single dose. The class given is ADME, organism-based. The following applies: in vivo.
A short description of series [7]: Half life in Balb/c mouse at 25 mg/kg, po administered as single dose. Conditions: in vivo. The class given is ADME, organism-based.
Series [8] in a line: Cmax in Balb/c mouse at 25 mg/kg, po administered as single dose. The class given is ADME, organism-based. Further details: route oral, dose 25 mg/kg. Conditions: in vivo.

hERG (KCNH2), sequence (Q12809 whole entry): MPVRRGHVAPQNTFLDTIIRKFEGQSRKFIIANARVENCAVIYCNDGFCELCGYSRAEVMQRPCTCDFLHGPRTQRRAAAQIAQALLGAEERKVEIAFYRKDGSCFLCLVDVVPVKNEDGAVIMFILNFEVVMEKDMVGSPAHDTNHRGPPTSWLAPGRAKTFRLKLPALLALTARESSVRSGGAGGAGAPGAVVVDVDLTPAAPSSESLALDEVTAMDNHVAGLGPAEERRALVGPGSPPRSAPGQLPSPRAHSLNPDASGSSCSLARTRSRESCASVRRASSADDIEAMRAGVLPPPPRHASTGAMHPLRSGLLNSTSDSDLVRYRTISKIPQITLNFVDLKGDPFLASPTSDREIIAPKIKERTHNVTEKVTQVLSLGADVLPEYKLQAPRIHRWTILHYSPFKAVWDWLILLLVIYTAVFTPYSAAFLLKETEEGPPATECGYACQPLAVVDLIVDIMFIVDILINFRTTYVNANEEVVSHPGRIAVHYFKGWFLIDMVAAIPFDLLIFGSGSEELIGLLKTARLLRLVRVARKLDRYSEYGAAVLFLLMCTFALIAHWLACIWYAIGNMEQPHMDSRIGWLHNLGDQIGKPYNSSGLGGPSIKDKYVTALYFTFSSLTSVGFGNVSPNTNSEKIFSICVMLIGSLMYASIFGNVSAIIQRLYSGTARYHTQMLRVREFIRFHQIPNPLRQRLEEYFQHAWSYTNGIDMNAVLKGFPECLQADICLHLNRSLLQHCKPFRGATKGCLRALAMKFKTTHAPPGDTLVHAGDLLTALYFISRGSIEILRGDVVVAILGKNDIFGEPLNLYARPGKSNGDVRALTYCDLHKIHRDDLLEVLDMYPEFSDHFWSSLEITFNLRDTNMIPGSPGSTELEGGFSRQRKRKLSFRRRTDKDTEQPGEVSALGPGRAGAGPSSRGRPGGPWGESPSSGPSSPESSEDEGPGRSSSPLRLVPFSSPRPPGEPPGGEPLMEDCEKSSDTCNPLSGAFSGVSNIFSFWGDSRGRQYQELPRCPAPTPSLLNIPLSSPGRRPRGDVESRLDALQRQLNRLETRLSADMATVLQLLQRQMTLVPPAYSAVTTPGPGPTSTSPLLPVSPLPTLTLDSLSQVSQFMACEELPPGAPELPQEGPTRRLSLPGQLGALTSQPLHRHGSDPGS

In the case of `CC(=O)Nc1ccc2oc(-c3ccnc(C(=O)N4CCN(C(c5ccc(Cl)cc5)c5nnn(C)n5)CC4)c3)nc2c1` (stereo not drawn), the CC50 (commonly the concentration at which the toxic effect on the cells reaches its halfway point) in series [1] is greater than 50 µM. In addition, in series [2], the concentration for half-maximal inhibition (IC50) (in general, the midpoint of a concentration-inhibition curve) was 1.71 µM.
As for `CC(=O)Nc1ccc2oc(-c3ccnc(C(=O)N4CCN([C@H](c5ccccc5)c5nnn(C)n5)CC4)c3)nc2c1`, the selectivity ratio in series [3] came out at 3590. For the same molecule, the CC50 in series [1] was found to be 144 µM. In addition, in series [2], the IC50 stood at 0.04 µM.
The like results for `CCOC(=O)C1=C[C@@H](OC(CC)CC)[C@H](NC(C)=O)[C@@H](N)C1` [OSELTAMIVIR] were, in that order, greater than 58, greater than 200 µM and 3.44 µM.
The like results for `NC(=O)c1ncn([C@@H]2O[C@H](CO)[C@@H](O)[C@H]2O)n1` [RIBAVIRIN] were, in that order, greater than 46, greater than 200 µM and 4.28 µM.
For the molecule `CC(=O)Nc1ccc2oc(-c3ccnc(C(=O)N4CCN(C(c5ccc(F)cc5)c5nnn(C)n5)CC4)c3)nc2c1` (stereo not drawn), the CC50 in series [1] was greater than 50 µM. Moreover, the IC50 in series [2] came to 0.27 µM.
Take `CC(=O)Nc1ccc2oc(-c3ccnc(C(=O)N4CC5CC4CN5C(c4ccccc4)c4nnn(C)n4)c3)nc2c1` (stereo not drawn): in series [1], the CC50 was greater than 50 µM. Besides, in series [2], the IC50 was 18.5 µM.
Regarding `CC(=O)Nc1ccc2oc(-c3ccnc(C(=O)N4CCN(C(c5ccc(OC(F)(F)F)cc5)c5nnn(C)n5)CC4)c3)nc2c1` (stereo not drawn), the CC50 in series [1] was greater than 50 µM. Moreover, the IC50 in series [2] turned out to be 3.18 µM.
On to `CC(=O)Nc1ccc2oc(-c3ccnc(C(=O)N4CCN([C@@H](c5ccccc5)c5nnn(C)n5)CC4)c3)nc2c1`, for which, in series [3], the selectivity ratio was greater than 105. Moreover, the CC50 in series [1] was greater than 200 µM. For the same molecule, the IC50 in series [2] came out at 1.9 µM.
For `CC(=O)Nc1ccc2oc(-c3ccnc(C(=O)N4CCC5(CC4)CCN(C(c4ccccc4)c4nnn(C)n4)CC5)c3)nc2c1` (stereo not drawn), the CC50 in series [1] was greater than 50 µM. For the same molecule, the IC50 in series [2] was greater than 50 µM.
For the molecule `CC(=O)Nc1ccc2oc(-c3ccnc(C(=O)N4CCN(C(c5ccc([N+](=O)[O-])cc5)c5nnn(C)n5)CC4)c3)nc2c1` (stereo not drawn), the CC50 in series [1] is greater than 50 µM. In addition, the IC50 in series [2] came to 7.41 µM.
For `CC(=O)Nc1ccc2oc(-c3ccnc(C(=O)N4CCN(C(c5ccc(Br)cc5)c5nnn(C)n5)CC4)c3)nc2c1` (stereo not drawn), the cytotoxic concentration (CC50) in series [1] was greater than 50 µM. Moreover, the IC50 in series [2] worked out at 1.43 µM.
`CC(=O)Nc1ccc2oc(-c3ccnc(C(=O)N4CCC5(CC4)CN(C(c4ccccc4)c4nnn(C)n4)C5)c3)nc2c1` (stereo not drawn): in series [1], the CC50 was greater than 50 µM. The IC50 in series [2] is greater than 50 µM.
For the molecule `CC(=O)Nc1ccc2oc(-c3ccnc(C(=O)N4CCN(C(c5cccc(F)c5)c5nnn(C)n5)CC4)c3)nc2c1` (stereo not drawn), the CC50 in series [1] is greater than 50 µM. Further, in series [2], the IC50 was 2.47 µM.
On to `CC(=O)Nc1ccc2oc(-c3ccnc(C(=O)N4CCN(C(c5ccc(C(F)(F)F)cc5)c5nnn(C)n5)CC4)c3)nc2c1` (stereo not drawn), for which the CC50 in series [1] is greater than 50 µM. Besides, in series [2], the IC50 stood at 12.8 µM.
As to `CC(=O)Nc1ccc2oc(-c3ccnc(C(=O)N4CCN([C@@H](c5ccc(F)cc5)c5nnn(C)n5)CC4)c3)nc2c1`, the selectivity ratio in series [3] was greater than 36. The CC50 in series [1] was greater than 200 µM. Further, the IC50 in series [2] is 5.51 µM.
Consider `CC(=O)Nc1ccc2oc(-c3ccnc(C(=O)N4CCN(C(c5nnn(C)n5)c5ccccc5F)CC4)c3)nc2c1` (stereo not drawn), for which the CC50 in series [1] is greater than 50 µM. The IC50 in series [2] worked out at 7.41 µM.
Take `CC(=O)Nc1ccc2oc(-c3ccnc(C(=O)N4CCN(C(c5ccc(C)cc5)c5nnn(C)n5)CC4)c3)nc2c1` (stereo not drawn): the CC50 in series [1] was greater than 50 µM. Besides, the IC50 in series [2] worked out at 4.28 µM.
For `CC(=O)Nc1ccc2oc(-c3ccnc(C(=O)N4CC5(CCN(C(c6ccccc6)c6nnn(C)n6)CC5)C4)c3)nc2c1` (stereo not drawn), the CC50 in series [1] was 32 µM. Besides, the IC50 in series [2] is 7.41 µM.
Consider `CC(=O)Nc1ccc2oc(-c3ccnc(C(=O)N4CCN(C(c5ccccc5)c5nnn(C)n5)CC4)c3)nc2c1` (racemic), for which the inhibition (as a rule, the share of the control response that was lost under treatment) at 10 µM in series [4] amounted to 53.8%. The CC50 in series [1] was greater than 50 µM. Moreover, the IC50 in series [2] was 0.35 µM. Also, the AUC(0-inf) (usually the area under the concentration-time curve extrapolated to infinity) in series [5] stood at 1210 ng·h/mL. In series [6], the Tmax (in general, the time at which the peak concentration occurs) is 0.25 h. Also, the half-life (commonly how long it takes for the measured level to halve) in series [7] was 3.69 h. Also, in series [8], the Cmax (usually the highest concentration seen after dosing) came to 572 ng/mL.
With `COc1ccc(C(c2nnn(C)n2)N2CCN(C(=O)c3cc(-c4nc5cc(NC(C)=O)ccc5o4)ccn3)CC2)cc1` (stereo not drawn), in series [1], the CC50 is greater than 50 µM. Moreover, the IC50 in series [2] came to 12 µM.
On to `CC(=O)Nc1ccc2oc(-c3ccnc(C(=O)N4CCN([C@H](c5ccc(F)cc5)c5nnn(C)n5)CC4)c3)nc2c1`, for which, in series [3], the selectivity ratio is greater than 6670. This molecule yielded an inhibition at 10 µM in series [4] of 13.2%. In addition, in series [1], the CC50 was greater than 200 µM. For the same molecule, the IC50 in series [2] was 0.03 µM. Moreover, the AUC(0-inf) in series [5] is 1910 ng·h/mL. Further, the Tmax in series [6] is 0.33 h. The molecule also had a half-life in series [7] of 5.84 h. Further, in series [8], the Cmax is 866 ng/mL.
